Measurements from patent US20210395210A1, “INHIBITION OF BACTERIAL CHAPERONIN SYSTEMS” (THE TRUSTEES OF INDIANA UNIVERSITY, priority 2018, published 2021).
pIC50: −log10 of the molar value. Where two headings read alike, the source gives them in different places.

Experiments:
E. coli GroEL/ES = target: T1, E. coli GroEL/ES (Escherichia coli, UniProt P0A6F5); test: GroEL/ES-mediated dMDH refolding assay; assay type: biochemical; conditions: for inhibition in the GroEL/ES-mediated refolding assays (in words): dMDH and dRho refolding assays; for selectivity for E. coli GroEL/ES over human HSP60/10 (in words): GroEL/ES-dMDH vs HSP60/10-dMDH IC50; for log(IC50) GroEL/ES-dMDH Refolding: log of IC50 (μM scale), with standard deviation
T1 construct: made in house; host or cells: GroEL in E. coli DH5α; GroES in E. coli BL21 (DE3)
Experimental: Reagent preparation: For these assays, four primary reagent stocks were prepared: 1) GroEUES-dMDH or HSP60/10-dMDH binary complex stock; 2) ATP initiation stock; 3) EDTA quench stock; 4) MDH enzymatic assay stock. Denatured MDH (dMDH) was prepared by 2-fold dilution of MDH (5 mg/ml, soluble pig heart MDH from Roche, product #10127248001) with denaturant buffer (7 M guanidine-HCl, 200 mM Tris, pH 7.4, and 50 mM DTT). MDH was completely denatured by incubating at room temperature for 45 min. The binary complex solutions were prepared by slowly adding the dMDH stock to a stirring stock with GroEL (or HSP60) in folding buffer (50 mM Tris-HCl, pH 7.4, 50 mM KCl, 10 mM MgCl2, and 1 mM DTT), followed by addition of GroES (or HSP10). The binary complex stocks were prepared immediately prior to dispensing into the assay plates and had final protein concentrations of 83.3 nM GroEL (Mr 800 kDa) or HSP60 (Mr 400 kDa), 100 nM GroES or HSP10 (Mr 70 kDa), and 20 nM dMDH in folding buffer. For the ATP initiation stock, ATP solid was diluted into folding buffer to a final concentration of 2.5 mM. Quench solution contained 600 mM EDTA (pH 8.0). The MDH enzymatic assay stock consisted of 20 mM sodium mesoxalate and 2.4 mM NADH in reaction buffer (50 mM Tris-HCl, pH 7.4, 50 mM KCl, and 1 mM DTT).
Assay Protocol: First, 30 μL aliquots of the GroEL/ES-dMDH or HSP60/10-dMDH binary complex stocks were dispensed into clear, 384-well polystyrene plates. […] The chaperonin-mediated refolding cycles were initiated by addition of 20 μL of ATP stock (reagent concentrations during refolding cycle: 50 nM GroEL or HSP60, 60 nM GroES or HSP10, 12 nM dMDH, 1 mM ATP, and compounds of 100 μM to 46 nM, 3-fold dilution series). The refolding reactions were incubated at 37° C. […] Next, the assay was quenched by addition of 10 μL of the EDTA to final concentration of 100 mM. […] A340 nm measurements were recorded at 0.5 minutes (start point) and at successive time points until the amount of NADH consumed reached ˜90% (end point, generally between 20-35 minutes). The differences between the start and end point A340 values were used to calculate the % inhibition of the GroEL/ES or HSP60/10 machinery by the compounds. […] Results presented represent the averages of IC50 values obtained from at least quadriplicate (duplicate of duplicate) replicates.
After generating the compound library, we next employed a series of well-established biochemical assays to evaluate compound inhibitory effects against the GroEUES chaperonin system (See FIG. 6 and FIG. 7). We used E. coli GroEUES as the surrogate chaperonin system for refolding of the reporter enzymes malate dehydrogenase (MDH) and rhodanese (Rho). Briefly, binary complexes are formed between GroEL and denatured MDH or Rho, which are then refolded to their native states upon addition of ATP and the GroES co-chaperonin. Enzymatic activities of refolded native MDH or Rho act as coupled reporters of GroEUES refolding functions since in the presence of chaperonin inhibitors, no functional reporter enzymes are generated.

[1] = Kidney cell viability assay (Alamar Blue); conditions: human
Experimental: HEK 293 cells were maintained in MEM medium (Corning Cellgro, 10-009 CV) supplemented with 10% FBS (Sigma, F2242). […] Cells at 80% confluence were harvested and diluted in growth medium, then 45 μL of the THLE-3 cells (1,500 cells/well) or HEK 293 cells (1,500 cells/well) were dispensed per well, and plates were sealed with “Breathe Easy” oxygen permeable membranes (Diversified Biotech) and incubated at 37° C., 5% CO2, for 24 h.

[2] = read-out: Biochemical Assay IC50 GroEL/ES-dMDH refolding

T1 sequence (P0A6F5 2-548): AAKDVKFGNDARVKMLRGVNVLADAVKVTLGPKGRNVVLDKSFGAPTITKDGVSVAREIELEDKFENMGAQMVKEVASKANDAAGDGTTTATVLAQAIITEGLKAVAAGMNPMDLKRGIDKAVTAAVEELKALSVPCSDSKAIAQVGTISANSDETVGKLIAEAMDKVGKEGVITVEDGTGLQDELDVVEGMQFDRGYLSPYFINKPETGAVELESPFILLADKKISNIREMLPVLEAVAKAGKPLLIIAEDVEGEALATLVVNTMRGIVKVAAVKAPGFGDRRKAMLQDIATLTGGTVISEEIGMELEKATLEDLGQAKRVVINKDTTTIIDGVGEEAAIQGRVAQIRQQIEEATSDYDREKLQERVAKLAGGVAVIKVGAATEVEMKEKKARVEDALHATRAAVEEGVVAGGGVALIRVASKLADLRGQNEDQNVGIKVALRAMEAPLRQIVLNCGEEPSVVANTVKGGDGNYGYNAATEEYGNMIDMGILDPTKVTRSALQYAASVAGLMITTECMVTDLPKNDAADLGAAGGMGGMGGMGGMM

Structure (SMILES)	pIC50 (E. coli GroEL/ES)	log(IC50) GroEL/ES-dMDH Refolding (E. coli GroEL/ES)	CC50 at 48 h [1]	also measured
Cc1cc(C(C#N)c2ccc(Cl)cc2)c(Cl)cc1NC(=O)c1cc(I)cc(I)c1O (stereo not shown) [Closantel, closantel, reference compound]	5.65			inhibition in the GroEL/ES-mediated refolding assays (in words) (E. coli GroEL/ES): potent GroEUES inhibitors; pIC50 (E. coli GroEL/ES; [2]): 5.66; CC50 at 48 h ([1]; HEK 293 kidney cells): 75.9 µM
O=C(Nc1ccc(Sc2nc3ccccc3s2)c(Cl)c1)c1cc(Br)ccc1O [Compound 3, N-(4-(Benzo[d]thiazol-2-ylthio)-3-chlorophenyl)-5-bromo-2-hydroxybenzamide]		1.57 ± 0.35		selectivity for E. coli GroEL/ES over human HSP60/10 (in words) (E. coli GroEL/ES): selectively inhibit E. coli GroEUES over human HSP60/10; inhibition in the GroEL/ES-mediated refolding assays (in words) (E. coli GroEL/ES): moderate to potent inhibitors; pIC50 (E. coli GroEL/ES; [2]): 4.43
O=C(Nc1ccc(Sc2nc3ccccc3s2)c(Cl)c1)c1ccccc1O [Compound 4, N-(4-(Benzo[d]thiazol-2-ylthio)-3-chlorophenyl)-2-hydroxybenzamide]		1.62 ± 0.32		selectivity for E. coli GroEL/ES over human HSP60/10 (in words) (E. coli GroEL/ES): selectively inhibit E. coli GroEUES over human HSP60/10; pIC50 (E. coli GroEL/ES; [2]): 4.38
O=C(Nc1ccc(Sc2nc3ccccc3s2)cc1)c1cccc(Br)c1O [Compound 6, N-(4-(Benzo[d]thiazol-2-ylthio)phenyl)-3-bromo-2-hydroxybenzamide]		1.52 ± 0.21		inhibition in the GroEL/ES-mediated refolding assays (in words) (E. coli GroEL/ES): moderate to potent inhibitors; pIC50 (E. coli GroEL/ES; [2]): 4.48
O=C(Nc1ccc(Sc2nc3ccccc3s2)cc1)c1cc(Br)ccc1O [Compound 7, N-(4-(Benzo[d]thiazol-2-ylthio)phenyl)-5-bromo-2-hydroxybenzamide]		1.58 ± 0.34		selectivity for E. coli GroEL/ES over human HSP60/10 (in words) (E. coli GroEL/ES): selectively inhibit E. coli GroEUES over human HSP60/10; inhibition in the GroEL/ES-mediated refolding assays (in words) (E. coli GroEL/ES): moderate to potent inhibitors; pIC50 (E. coli GroEL/ES; [2]): 4.42
O=C(Nc1cccc(Cl)c1)c1ccccc1O [Compound 12, N-(3-Chlorophenyl)-2-hydroxybenzamide]	< 4.00	>2		
O=C(Nc1ccccc1)c1cccc(Br)c1O [Compound 14, 3-Bromo-2-hydroxy-N-phenylbenzamide]	< 4.00	>2		
O=C(Nc1ccccc1)c1cc(Br)ccc1O [Compound 15, 5-Bromo-2-hydroxy-N-phenylbenzamide]	< 4.00	>2		
O=C(Nc1ccc(Sc2nc3ccccc3s2)c(Cl)c1)c1cc(Br)cc(Br)c1 [Compound 17, N-(4-(Benzo[d]thiazol-2-ylthio)-3-chlorophenyl)-3,5-dibromobenzamide]	< 4.00		> 100 µM	
O=C(Nc1ccc(Sc2nc3ccccc3s2)c(Cl)c1)c1cccc(Br)c1 [Compound 18, N-(4-(Benzo[d]thiazol-2-ylthio)-3-chlorophenyl)-3-bromobenzamide]	< 4.00		> 100 µM	
O=C(Nc1ccc(Sc2nc3ccccc3s2)c(Cl)c1)c1ccccc1 [Compound 19, N-(4-(Benzo[d]thiazol-2-ylthio)-3-chlorophenyl)benzamide]	< 4.00			
O=C(Nc1ccc(Sc2nc3ccccc3s2)cc1)c1cc(Br)cc(Br)c1 [Compound 20, N-(4-(Benzo[d]thiazol-2-ylthio)phenyl)-3,5-dibromobenzamide]	< 4.00		> 100 µM	
O=C(Nc1ccc(Sc2nc3ccccc3s2)cc1)c1cccc(Br)c1 [Compound 21, N-(4-(Benzo[d]thiazol-2-ylthio)phenyl)-3-bromobenzamide]	< 4.00			
O=C(Nc1ccc(Sc2nc3ccccc3s2)cc1)c1ccccc1 [Compound 22, N-(4-(Benzo[d]thiazol-2-ylthio)phenyl)benzamide]	< 4.00		> 100 µM	
O=C(Nc1cccc(Cl)c1)c1cc(Br)cc(Br)c1 [Compound 23, 3,5-Dibromo-N-(3-chlorophenyl)benzamide]	< 4.00	>2		
O=C(Nc1cccc(Cl)c1)c1cccc(Br)c1 [Compound 24, 3-Bromo-N-(3-chlorophenyl)benzamide]	< 4.00	>2	51.3 µM	
O=C(Nc1cccc(Cl)c1)c1ccccc1 [Compound 25, N-(3-Chlorophenyl)benzamide]	< 4.00	>2	> 100 µM	
O=C(Nc1ccccc1)c1cc(Br)cc(Br)c1 [Compound 26, 3,5-Dibromo-N-phenylbenzamide]	< 4.00	>2	> 100 µM	
O=C(Nc1ccccc1)c1cccc(Br)c1 [Compound 27, 3-Bromo-N-phenylbenzamide]	< 4.00	>2	> 100 µM	
COc1c(Br)cc(Br)cc1C(=O)Nc1ccc(Sc2nc3ccccc3s2)c(Cl)c1 [Compound 29, N-(4-(Benzo[d]thiazol-2-ylthio)-3-chlorophenyl)-3,5-dibromo-2-methoxybenzamide]	< 4.00		> 100 µM	
COc1c(Br)cccc1C(=O)Nc1ccc(Sc2nc3ccccc3s2)c(Cl)c1 [Compound 30, N-(4-(Benzo[d]thiazol-2-ylthio)-3-chlorophenyl)-3-bromo-2-methoxybenzamide]	< 4.00		> 100 µM	
COc1ccc(Br)cc1C(=O)Nc1ccc(Sc2nc3ccccc3s2)c(Cl)c1 [Compound 31, N-(4-(Benzo[d]thiazol-2-ylthio)-3-chlorophenyl)-5-bromo-2-methoxybenzamide]	< 4.00		> 100 µM	
COc1ccccc1C(=O)Nc1ccc(Sc2nc3ccccc3s2)c(Cl)c1 [Compound 32, N-(4-(Benzo[d]thiazol-2-ylthio)-3-chlorophenyl)-2-methoxybenzamide]	< 4.00		> 100 µM	
COc1c(Br)cc(Br)cc1C(=O)Nc1ccc(Sc2nc3ccccc3s2)cc1 [Compound 33, N-(4-(Benzo[d]thiazol-2-ylthio)phenyl)-3,5-dibromo-2-methoxybenzamide]	< 4.00		> 100 µM	
COc1c(Br)cccc1C(=O)Nc1ccc(Sc2nc3ccccc3s2)cc1 [Compound 34, N-(4-(Benzo[d]thiazol-2-ylthio)phenyl)-3-bromo-2-methoxybenzamide]			> 100 µM	
COc1ccc(Br)cc1C(=O)Nc1ccc(Sc2nc3ccccc3s2)cc1 [Compound 35, N-(4-(Benzo[d]thiazol-2-ylthio)phenyl)-5-bromo-2-methoxybenzamide]	< 4.00		> 100 µM	
COc1ccccc1C(=O)Nc1ccc(Sc2nc3ccccc3s2)cc1 [Compound 36, N-(4-(Benzo[d]thiazol-2-ylthio)phenyl)-2-methoxybenzamide]	< 4.00		> 100 µM	
COc1c(Br)cc(Br)cc1C(=O)Nc1cccc(Cl)c1 [Compound 37, 3,5-Dibromo-N-(3-chlorophenyl)-2-methoxybenzamide]	< 4.00	>2	> 100 µM	
CO[C@H]1/C=C/O[C@@]2(C)Oc3c(C)c(O)c4c(O)c(c(/C=N/N5CCN(C)CC5)c(O)c4c3C2=O)NC(=O)/C(C)=C\C=C\[C@H](C)[C@H](O)[C@@H](C)[C@@H](O)[C@@H](C)[C@H](OC(C)=O)[C@@H]1C [Rifampicin, rifampicin, reference compound]			> 100 µM	
